Measurements: ChEMBL document CHEMBL1127824, “6,6-Disubstituted Hex-5-enoic acid derivatives as combined thromboxane A2 receptor antagonists and synthetase inhibitors” (J Med Chem, 1994)
Where “and” joins values, the source holds several entries; their conditions need not be identical. Equal entries are not always repeated.

Legend:
Thromboxane-A synthase = biological target: T1, Thromboxane-A synthase (Homo sapiens, UniProt P24557)
T1 sequence (P24557 whole entry): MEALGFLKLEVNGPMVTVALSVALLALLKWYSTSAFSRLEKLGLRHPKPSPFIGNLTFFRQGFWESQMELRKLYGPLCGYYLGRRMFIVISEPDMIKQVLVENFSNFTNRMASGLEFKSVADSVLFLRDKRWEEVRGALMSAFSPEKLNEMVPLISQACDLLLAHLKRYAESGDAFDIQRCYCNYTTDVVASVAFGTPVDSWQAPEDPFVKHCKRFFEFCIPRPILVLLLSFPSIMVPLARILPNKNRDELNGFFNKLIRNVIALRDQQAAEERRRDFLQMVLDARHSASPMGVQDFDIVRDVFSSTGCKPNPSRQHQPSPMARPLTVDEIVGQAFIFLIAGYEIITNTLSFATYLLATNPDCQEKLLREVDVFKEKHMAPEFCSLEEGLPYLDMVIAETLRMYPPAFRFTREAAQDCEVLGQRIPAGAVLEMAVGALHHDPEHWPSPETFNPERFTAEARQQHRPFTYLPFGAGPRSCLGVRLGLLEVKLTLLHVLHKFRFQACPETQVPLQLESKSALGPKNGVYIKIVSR
Description: Inhibition test of thromboxane A2 synthetase in human gel-filtered platelets.

Homo sapiens = organism: Homo sapiens; assay: tissue or blood; type: functional, organism-based; conditions: Plasma
Description: Inhibition of collagen-induced platelet aggregation in human platelet-rich plasma.

Thromboxane A2 receptor = biological target: T2, Thromboxane A2 receptor (Homo sapiens, UniProt P21731)
T2 sequence (P21731 whole entry): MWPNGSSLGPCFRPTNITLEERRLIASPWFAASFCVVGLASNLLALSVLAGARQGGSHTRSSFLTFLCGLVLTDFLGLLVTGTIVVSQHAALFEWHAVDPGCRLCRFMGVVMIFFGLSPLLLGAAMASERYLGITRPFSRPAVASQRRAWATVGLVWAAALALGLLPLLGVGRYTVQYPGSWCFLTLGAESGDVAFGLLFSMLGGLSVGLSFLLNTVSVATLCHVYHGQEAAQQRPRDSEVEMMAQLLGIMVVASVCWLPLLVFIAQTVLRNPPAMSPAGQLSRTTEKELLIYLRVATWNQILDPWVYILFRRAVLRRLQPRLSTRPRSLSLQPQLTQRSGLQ

| Compound | IC50 (Thromboxane-A synthase) | EC50 (Homo sapiens) | IC50 (Thromboxane A2 receptor) |
| --- | --- | --- | --- |
| CNC(=O)CCC/C=C(\c1ccc(CCNS(=O)(=O)c2ccc(Cl)cc2)cc1)c1cccnc1 | 250 nM | 24000 nM | 170 nM |
| CN(CCc1ccc(/C(=C\CCCC(=O)O)c2cccnc2)cc1)S(=O)(=O)c1ccc(Cl)cc1 | 15 nM | 24000 nM | 25 nM |
| O=C(O)CCC/C=C(\c1ccc(CCN(CCC(=O)O)S(=O)(=O)c2ccc(Cl)cc2)cc1)c1cccnc1 | 100 nM | > 100000 nM | 120 nM |
| COc1ccc(S(=O)(=O)NCCc2ccc(/C(=C\CCCC(=O)O)c3cccnc3)cc2)cc1OC | 5 nM | 16000 nM | 340 nM |
| Cc1ccc(S(=O)(=O)NCCc2ccc(/C(=C\CCCC(=O)O)c3cccnc3)cc2)cc1 | 5 nM | 700 nM | 33 nM |
| CCN(CCc1ccc(/C(=C\CCCC(=O)O)c2cccnc2)cc1)S(=O)(=O)c1ccc(Cl)cc1 | 4 nM | 13000 nM | 33 nM |
| COc1ccc(S(=O)(=O)NCCc2ccc(/C(=C\CCCC(=O)O)c3cccnc3)cc2)cc1 | 5 nM | 10000 nM | 52 nM |
| O=C(O)CCC/C=C(\c1ccc(CCNC(=O)Cc2ccccc2)cc1)c1cccnc1 | 21 nM | 9500 nM | 1200 nM |
| O=C(O)CCC/C=C(\c1ccc(CCNS(=O)(=O)c2ccc(C(F)(F)F)cc2)cc1)c1cccnc1 | 6 nM | 2800 nM | 28 nM |
| O=C(O)CCC/C=C(\c1ccc(CCN(CCN2CCOCC2)S(=O)(=O)c2ccc(Cl)cc2)cc1)c1cccnc1 | 4 nM | 21000 nM | 58 nM |
| O=C(O)CCC/C=C(/c1cccnc1)c1ccc2c(c1)CC(NS(=O)(=O)c1ccc(F)cc1)C2 (stereo not drawn) | 1 nM | 560 nM | 9 nM |
| O=C(O)CCC/C=C(\CCCNS(=O)(=O)c1ccc(Cl)cc1)c1cccnc1 | 24 nM | 47000 nM | 330 nM |
| Cc1cc(C)c(S(=O)(=O)NCCc2ccc(/C(=C\CCCC(=O)O)c3cccnc3)cc2)c(C)c1 | 19 nM | 30000 nM | 42 nM |
| O=C(O)CCCCC(c1ccc(CCNS(=O)(=O)c2ccc(Cl)cc2)cc1)c1cccnc1 (stereo not drawn) | 2 nM | 1200 nM | 84 nM |
| O=C(O)CCCCCC(c1ccc(CCNS(=O)(=O)c2ccc(Cl)cc2)cc1)c1cccnc1 (stereo not drawn) | 31 nM | 1200 nM | 210 nM |
| O=C(O)CCC/C=C(\c1ccc(NS(=O)(=O)c2ccc(Cl)cc2)cc1)c1cccnc1 | 5 nM | > 100000 nM | 270 nM |
| Cn1c(CCNS(=O)(=O)c2ccc(F)cc2)ccc1/C(=C\CCCC(=O)O)c1cccnc1 | 4 nM | 1100 nM | 230 nM |
| O=C(O)CCC/C=C(\c1ccc(CNS(=O)(=O)c2ccc(Cl)cc2)cc1)c1cccnc1 | 7 nM | 5000 nM | 55 nM |
| O=C(O)C/C=C(\c1ccc(CCNS(=O)(=O)c2ccc(Cl)cc2)cc1)c1cccnc1 | 1000 nM | 37000 nM | 12 nM |
| O=C(O)CCC/C=C(\c1ccc(CCNS(=O)(=O)c2ccc(F)cc2)cc1)c1cccnc1 | 4 nM | 3100 nM | 66 nM |
| CCCCS(=O)(=O)NCCc1ccc(/C(=C\CCCC(=O)O)c2cccnc2)cc1 | 5 nM | 3400 nM | 1100 nM |
| O=C(O)CC/C=C(\c1ccc(CCNS(=O)(=O)c2ccc(Cl)cc2)cc1)c1cccnc1 | 21 nM | 36000 nM | 42 nM |
| CC(C)N(CCc1ccc(/C(=C\CCCC(=O)O)c2cccnc2)cc1)S(=O)(=O)c1ccc(Cl)cc1 | 25 nM | > 100000 nM | 51 nM |
| O=C(O)CCC(CCCCNS(=O)(=O)c1ccc(Cl)cc1)CCCc1cccnc1 (stereo not drawn) | 6 nM and 4 nM | 5800 nM | 6 nM |
| O=C(O)CCCCO/N=C(/c1cccnc1)c1cccc(C(F)(F)F)c1 [RIDOGREL] | 4 nM and 8 nM | 16000 nM | 1700 nM and 5200 nM |
| O=C(O)CCC/C=C(\c1ccc(CCNS(=O)(=O)c2ccc(Cl)cc2)cc1)c1cccnc1 [SAMIXOGREL] | 4 nM | 1000 nM | 19 nM |
